In patent publication US7335770B2, “Triazine compounds and their analogs, compositions, and methods” (Reddy U5 Therapeutics, Inc., priority 2004, dated 2008):
Read-outs that look alike come from different tables or passages of the source.

Test system: smooth muscle cells (SMC)
Assay: anti-proliferation assay (perlecan)
Assay type: cell-based
Conditions: for activity in anti-proliferation assay (Perlecan), in words: using the same activity scale used in Table 3; for IC50: anti-proliferation assay (perlecan)
Procedure: The activity scale used in Table 3 as follows (numbers are inclusive): “+++” represents IC50 of less than about 3 μM; “++” represents IC50 of between about 3 and about 7 μM; and “+” represents IC50 of greater than about 7 μM. In addition, compounds, to include compositions thereof, encompassed within the scope of structures Ia-XXIVa, respectively, or listed in Tables 1A and 1E may be likewise employed in this embodiment and/or aspect of the present invention. Further, any hydrogen atoms that are required for any atom to attain its usual valence in a structure presented in Table 3, whether a carbon atom or a heteroatom, should be inferred if it is not specifically indicated.
In addition to the above compounds, the following compounds and compositions comprising these compounds are active in an anti-proliferation assay (Perlecan). These compounds and compositions comprising these compounds are, among other things, generally useful for treating cardiovascular disorders associated with proliferative activity. Specifically, these compounds include N^2-cycloheptyl-N^4-(3-fluoro-4-methoxyphenyl)-N^6-methyl-N^6-(1-methyl-piperidin-4-yl)-1,3,5-triazine-2,4,6-triamine, and N^2-cycloheptyl-N^4-methyl-N^4-(1-methyl-piperidin-4-yl)-N^6-naphthalen-2-yl-1,3,5-triazine-2,4,6-triamine.
Methods for identifying the activity and screening for one or more of these compounds or molecules that induce synthesis of proteoglycans such as HSPG (heparan sulfate proteoglycan) are taught in U.S. patent application Ser. No. 10/091,357, which is incorporated herein in its entirety. Assays of effects of compounds in vivo are also taught in the incorporated references and are known to those skilled in the art. In general, methods comprise the addition of such compounds to assays and measurement of HSPG synthesis including, but not limited to, the production of syndecans, glypicans and perlecans, for example, syndecans 1, 2 and 4; and glypican-1. Other assays that can be used to determine the activity of the compounds of the present invention include other methods for measuring the induction of perlecan synthesis. For example, in one assay, perlecan is induced in cells by certain inducers, and the response is measured. Compounds of the present invention are then added to a replicate assay and the effect on perlecan induction is determined. Using such methods, compounds are determined that can either inhibit perlecan, elevate induction of perlecan, or that have no effect at all. Those compounds that are effective as therapeutic agents can then be used in animals, humans or patients with cellular proliferation disease aspects, such as vascular-associated diseases or SMC proliferation pathologies.
Another assay for determining compounds having SMC effects comprises adding a composition suspected of affecting SMC proliferation to smooth muscle cells in growth medium or serum-free medium. The change in cell proliferation can be measured by methods known to those skilled in the art, such as incorporation of labeled nucleotides into dividing cells' DNA, and compared to the proliferation of cells which are not treated with the compound. Other measurements include directly determining levels of HSPG synthesis by measuring the amount or change in amount of HSPG such as with ELISA for HSPGs, and compared to the amount of HSPG synthesis in untreated cells. Other indirect or direct measurement are contemplated by the present invention and are known to those skilled in the art. For example, such methods include, but are not limited to, measurement of RNA levels, RT-PCR, Northern blotting, Western blotting promoter-based assays to identify compounds that affect one or more proteoglycans and assays for proteoglycan biological activity shown by recombinant proteins, partially purified proteins, or lysates from cells expressing proteoglycans in the presence or absence of compounds of interest.

[1] = class of IC50, read-out: Activity (note 1)
[2] = some cells print no unit, read-out: Avg IC-50

Row | SMILES | activity in anti-proliferation assay (Perlecan), in words | IC50 [1] | IC50 [2]
1 | CCN1CCCC1CNc1nc(Nc2ccc(OC)c(F)c2)nc(N2CCN(CC(=O)N3CCCC3)CC2)n1.Cl.Cl (stereo not shown) | high activity |  | 
2 | COc1ccc(Nc2nc(NCCNC(=O)CCCCC3SCC4NC(=O)NC43)nc(NC3CCCCCC3)n2)cc1Cl (stereo not shown) | high activity |  | 
3 | COc1ccc(Nc2nc(NC3CCCCCC3)nc(-c3c(O)ccc4ccccc34)n2)cc1Cl [1-[4-(3-Chloro-4-methoxy-phenylamino)-6-cycloheptylamino-[1,3,5]triazin-2-yl]-naphthalen-2-ol] | high activity |  | 
4 | COc1ccc(Nc2nc(NC3CCCCCC3)nc(Oc3ccc(C(C)=O)cc3Cl)n2)cc1Cl [1-{3-Chloro-4-[4-(3-chloro-4-methoxy-phenylamino)-6-cycloheptylamino-[1,3,5]triazin-2-yloxy]-phenyl}-ethanone] | high activity |  | 
5 | COc1ccc(Nc2nc(NC3CCCCCC3)nc(OC3CCCN(C(C)=O)C3)n2)cc1Cl (stereo not shown) [1-{3-[4-(3-Chloro-4-methoxy-phenylamino)-6-cycloheptylamino-[1,3,5]triazin-2-yloxy]-piperidin-1-yl}-ethanone] | high activity |  | 
6 | COc1ccc(Nc2nc(NC3CCCCCC3)nc(Oc3ccc(C(C)=O)cc3)n2)cc1Cl [1-{4-[4-(3-Chloro-4-methoxy-phenylamino)-6-cycloheptylamino-[1,3,5]triazin-2-yloxy]-phenyl}-ethanone] | high activity |  | 
7 | CCN1CCCC1CNc1nc(Nc2ccc(OC)c(F)c2)nc(N2CCN(CC(=O)N3CCCC3)CC2)n1 (stereo not shown) [2-{4-[4-[(1-Ethyl-pyrrolidin-2-ylmethyl)-amino]-6-(3-fluoro-4-methoxy-phenylamino)-[1,3,5]triazin-2-yl]-piperazin-1-yl}-1-pyrrolidin-1-yl-ethanone] | high activity |  | 
8 | CCc1occc(=O)c1Oc1nc(Nc2ccc(OC)c(Cl)c2)nc(NC2CCCCCC2)n1 [3-[4-(3-Chloro-4-methoxy-phenylamino)-6-cycloheptylamino-[1,3,5]triazin-2-yloxy]-2-ethyl-pyran-4-one] | high activity |  | 
9 | CCOC(=O)/C=C/c1ccc(Oc2nc(Nc3ccc(OC)c(Cl)c3)nc(NC3CCCCCC3)n2)cc1 [3-{4-[4-(3-Chloro-4-methoxy-phenylamino)-6-cycloheptylamino-[1,3,5]triazin-2-yloxy]-phenyl}-acrylic acid ethyl ester] | high activity |  | 
10 | COc1ccc(Nc2nc(NC3CCCCCC3)nc(NC3CCN(C(=O)CCCCC4SCC5NC(=O)NC54)CC3)n2)cc1Cl (stereo not shown) [4-(5-{4-[4-(3-Chloro-4-methoxy-phenylamino)-6-cycloheptylamino-[1,3,5]triazin-2-ylamino]-piperidin-1-yl}-5-oxo-pentyl)-tetrahydro-thieno[3,4-d]imidazol-2-one] | high activity |  | 
11 | COc1ccc(Nc2nc(NC3CCCCCC3)nc(-c3ccc(O)cc3O)n2)cc1Cl [4-[4-(3-Chloro-4-methoxy-phenylamino)-6-cycloheptylamino-[1,3,5]triazin-2-yl]-benzene-1,3-diol] | high activity |  | 
12 | COc1ccc(Nc2nc(NC3CCCCCC3)nc(Oc3ccc(/C=N\O)cc3)n2)cc1Cl [4-[4-(3-Chloro-4-methoxy-phenylamino)-6-cycloheptylamino-[1,3,5]triazin-2-yloxy]-benzaldehyde oxime] | high activity |  | 
13 | COc1ccc(Nc2nc(NC3CCCCCC3)nc(Oc3ccc(C=O)cc3)n2)cc1Cl [4-[4-(3-Chloro-4-methoxy-phenylamino)-6-cycloheptylamino-[1,3,5]triazin-2-yloxy]-benzaldehyde] | high activity |  | 
14 | COc1ccc(Nc2nc(NC3CCCCCC3)nc(Oc3ccccc3C#CC(C)(C)O)n2)cc1Cl [4-{2-[4-(3-Chloro-4-methoxy-phenylamino)-6-cycloheptylamino-[1,3,5]triazin-2-yloxy]-phenyl}-2-methyl-but-3-yn-2-ol] | high activity |  | 
15 | CCN1CCCC1CNc1nc(NC2CCCCCC2)nc(NC2CCC(O)CC2)n1 (stereo not shown) [4-{4-Cycloheptylamino-6-[(1-ethyl-pyrrolidin-2-ylmethyl)-amino]-[1,3,5]triazin-2-ylamino}-cyclohexanol] | high activity |  | 
16 | COc1ccc(Nc2nc(NC3CCCCCC3)nc(Oc3ccc(C#CC(C)(C)O)cc3)n2)cc1Cl [4-{4-[4-(3-Chloro-4-methoxy-phenylamino)-6-cycloheptylamino-[1,3,5]triazin-2-yloxy]-phenyl}-2-methyl-but-3-yn-2-ol] | high activity |  | 
17 | COc1ccc(Nc2nc(NC(C)C)nc(Oc3ccc(C#CC(C)(C)O)cc3)n2)cc1Cl [4-{4-[4-(3-Chloro-4-methoxy-phenylamino)-6-isopropylamino-[1,3,5]triazin-2-yloxy]-phenyl}-2-methyl-but-3-yn-2-ol] | high activity |  | 
18 | COc1ccc(Nc2nc(NNC(=O)CCCCC3SCC4NC(=O)NC43)nc(NC3CCCCCC3)n2)cc1Cl (stereo not shown) [5-(2-Oxo-hexahydro-thieno[3,4-d]imidazol-4-yl)-pentanoic acid N′-[4-(3-chloro-4-methoxy-phenylamino)-6-cycloheptylamino-[1,3,5]triazin-2-yl]-hydrazide] | high activity |  | 
19 | COc1ccc(Nc2nc(NCCCCCNC(=O)CCCCC3SCC4NC(=O)NC43)nc(NC3CCCCCC3)n2)cc1Cl (stereo not shown) [5-(2-Oxo-hexahydro-thieno[3,4-d]imidazol-4-yl)-pentanoic acid {5-[4-(3-chloro-4-methoxy-phenylamino)-6-cycloheptylamino-[1,3,5]triazin-2-ylamino]-pentyl}-amide] | high activity |  | 
20 | COc1ccc(Nc2nc(NC3CCCCCC3)nc(Sc3ccccc3C(C)(C)C)n2)cc1Cl [6-(2-tert-Butyl-phenylsulfanyl)-N-(3-chloro-4-methoxy-phenyl)-N′-cycloheptyl-[1,3,5]triazine-2,4-diamine] | high activity |  | 
21 | CCN1CCCC1CNc1nc(Cl)nc(Nc2ccc(OC)c(F)c2)n1 (stereo not shown) [6-Chloro-N-(1-ethyl-pyrrolidin-2-yl-methyl)-N′-(3-fluoro-4-meth-oxy-phenyl)-[1,3,5]triazine-2,4-di-amine] |  | 3 to 7 µM | 6.5 µM
22 | Clc1nc(Cl)nc(NC2CCCCCC2)n1 [Cycloheptyl-(4,6-dichloro-[1,3,5]tri-azin-2-yl)-amine] |  | 3 to 7 µM | 3.75 µM
23 | COc1ccc(Nc2nc(NCCN)nc(NC3CCCCCC3)n2)cc1Cl [N-(2-Amino-ethyl)-N′-(3-chloro-4-methoxy-phenyl)-N″-cycloheptyl-[1,3,5]triazine-2,4,6-triamine] | high activity |  | 
24 | CCN1CCCC(Oc2nc(Nc3ccc(OC)c(Cl)c3)nc(NC3CCCCCC3)n2)C1 (stereo not shown) [N-(3-Chloro-4-methoxy-phenyl)-N′-cycloheptyl-6-(1-ethyl-piperidin-3-yloxy)-[1,3,5]triazine-2,4-diamine] | high activity |  | 
25 | COc1ccc(Nc2nc(NC3CCCCCC3)nc(OC3CCN(C)CC3)n2)cc1Cl [N-(3-Chloro-4-methoxy-phenyl)-N′-cycloheptyl-6-(1-methyl-piperidin-4-yloxy)-[1,3,5]triazine-2,4-diamine] | high activity |  | 
26 | COc1ccc(Nc2nc(NC3CCCCCC3)nc(OCC3CCCN3C)n2)cc1Cl (stereo not shown) [N-(3-Chloro-4-methoxy-phenyl)-N′-cycloheptyl-6-(1-methyl-pyrrolidin-2-ylmethoxy)-[1,3,5]triazine-2,4-diamine] | high activity |  | 
